Measurements reported in PMC8151276, “An Integrated Approach toward NanoBRET Tracers for Analysis of GPCR Ligand Engagement” (Molecules, 2021).

Target: T1, OPRD1 (Homo sapiens, UniProt P41143)
T1 construct: purchased Promega (in-house HiBiT-GPCR construct library, NanoBRET)
Assay: NanoBRET screen HiBiT-OPRD1 in HEK293
Type: binding
Experimental: Each tracer candidate was screened across the entire library of HiBiT-GPCR constructs using NanoBRET as the detection modality. As depicted in Figure 4A, the specificity of interactions was evaluated through decrease in BRET due to competitive displacement of a bound tracer by excess parental compound. Each tracer was analyzed for binding to each HiBiT-GPCR fusion in the absence and in the presence of competing parental compound. Briefly, HEK293 cells were transfected with HiBiT-GPCR constructs diluted into promoterless DNA to reduce expression and maximize translocation to the cell surface. Each tracer candidate was then screened at concentrations of 1 μM and 0.1 μM across cells expressing these fusions. Cells were treated for 1.5 h with tracer either alone or in the presence of 20 μM competing parental compound (i.e., control). BRET was measured upon addition of purified LgBiT and subsequent complementation with HiBiT genetically fused to a GPCR. The specificity of interactions was assessed through a decrease in BRET signal due to competitive displacement of the bound tracer. To further gauge the robustness of these interactions, the fold response over the control (i.e., BRETtracer/BRETcontrol) was calculated. We chose a 1.5-fold response, which translates to ≥7-fold signal over noise as the minimal threshold required to score an interaction as positive.
HiBiT-GPCR DNA constructs were diluted in 10 mM Tris pH 8 to a final concentration of 0.01 μg/μL, arrayed in 96-well plates and stored at −20 °C. For transfection, HEK293 cells were suspended in Opti-MEM (without phenol red) supplemented with 2% fetal bovine serum (Seradigm) and 100 units/mL penicillin–streptomycin (Gibco) at a final concentration of 220,000 cells/mL and dispensed into white 96-well plates at 90 μL/well. Subsequent transfections and screens were carried using an Agilent Bravo Automated Liquid Handling Platform. First, the 96-well HiBiT DNA arrays were diluted 25-fold in Opti-MEM (without serum or phenol red) to a final concentration of 0.0004 μg/μL and 20 μL of the diluted DNAs were transferred into new 96-well plates. Next, promoterless carrier DNA (1 μg/μL) was diluted 25-fold (0.04 μg/μL) and then dispensed into the diluted arrays at 20 μL/well. Following brief mixing, Viafect transfection reagent (Promega) diluted 16-fold into Opti-MEM was dispensed into the plates at 40 μL/well. After mixing by pipetting, plates were incubated for 10 min on the pipetting station deck. The DNA-transfection reagent complexes were then added to plates containing cells. To facilitate the screen, 10 μL of DNA-transfection reagent complexes were added in duplicates to the top 4 and bottom 4 rows, resulting in two identical 48-well arrays per plate. Plates with transfected cells were incubated for 18–20 h at 37 °C/5% CO2. A screen of each tracer across the entire library using two different concentrations requires duplicate plates of transfected cells. Depending on the number of tracers being screened, transfections can be scaled up using the same ratios. The next day, for each tracer, four 20× screening solutions in tracer dilution buffer (Promega) were prepared: two duplicates at final concentration of 20 μM and two duplicates at a final concentration of 2 μM. […] The four resulting solutions were diluted 4-fold in Opti-MEM without serum or phenol red to generate 5× solutions (5 µM and 0.5 µM tracer +/− 100 μM competing compound). To screen the library, a BioTek MultiFlo FX liquid dispenser was used to dispense 22.5 µL of tracer solution to the top 4 rows and 22.5 µL tracer + competing compound solution to the 4 bottom rows. Plates were briefly mixed on an orbital shaker and incubated for 1.5 h at room temperature. […] Plates were briefly mixed on an orbital shaker and incubated for 15 min to allow complementation.

T1 sequence (P41143 whole entry): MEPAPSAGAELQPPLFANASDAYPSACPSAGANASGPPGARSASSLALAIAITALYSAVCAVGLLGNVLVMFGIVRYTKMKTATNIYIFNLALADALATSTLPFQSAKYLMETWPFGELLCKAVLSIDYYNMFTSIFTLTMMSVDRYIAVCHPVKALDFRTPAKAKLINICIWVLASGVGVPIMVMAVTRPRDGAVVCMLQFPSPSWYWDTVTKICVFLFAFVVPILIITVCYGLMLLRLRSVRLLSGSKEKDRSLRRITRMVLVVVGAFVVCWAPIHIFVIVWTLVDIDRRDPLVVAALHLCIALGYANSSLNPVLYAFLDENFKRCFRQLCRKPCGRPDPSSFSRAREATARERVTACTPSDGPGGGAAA

Row | SMILES | NanoBRET Fold Response (OPRD1, tracer 0.1μM) | NanoBRET Fold Response (OPRD1, tracer 1μM) | other results
1 | O=C(CCc1ccc2n1[B-](F)(F)[N+]1=C(c3ccc[nH]3)C=CC1=C2)NCc1ccc(C(=O)NCCOCCC(=O)N[C@@H]2CC[C@@]3(O)[C@H]4Cc5ccc(O)c6c5[C@@]3(CCN4CC3CC3)[C@H]2O6)cc1 [Naltrexone-3-NB590] | 1.81 | 1.52 | –
2 | CCCn1c(=O)c2[nH]c(-c3ccc(OCC(=O)NCCNC(=O)CCOCCNC(=O)c4ccc(CNC(=O)CCc5ccc6n5[B-](F)(F)[N+]5=C(c7ccc[nH]7)C=CC5=C6)cc4)cc3)nc2n(CCC)c1=O [XAC-3-NB590] | 0.97 | 0.81 | –
3 | CC(C)N(CC[C@H](c1ccccc1)c1cc(CCNC(=O)c2ccc(CNC(=O)CCc3ccc4n3[B-](F)(F)[N+]3=C(c5ccc[nH]5)C=CC3=C4)cc2)ccc1O)C(C)C [Tolterodine-BZ-NB590] | 1.06 | 1.05 | –
4 | N#CN/C(=N\CCNC(=O)c1ccc(N)cc1)NCCCOc1cccc(CN2CCCCC2)c1 [Aminopotentidine (unmodified)] | – | – | NanoBRET Fold Response (OPRD1, other tracers/Aminopotentidine (unmodified), 0.1μM): 1.25; NanoBRET Fold Response (OPRD1, other tracers/Aminopotentidine (unmodified), 1μM): 1.01
5 | COc1ccc2[nH]c(-c3ccc(CNC(=O)CCOCCOCCOCCOCCNC(=O)CCc4ccc5n4[B-](F)(F)[N+]4=C(c6ccc[nH]6)C=CC4=C5)cc3)c(CCNC(C)=O)c2n1 [AzomelatoninICO9-2-NB590] | – | – | NanoBRET Fold Response (0.1μM tracer): 1.06; NanoBRET Fold Response (1μM tracer): 1.03
6 | CN1CCN(C2=Nc3cc(Cl)ccc3N(CC(=O)NCCOCCOCCOCCOCCNC(=O)CCc3ccc4n3[B-](F)(F)[N+]3=C(c5ccc[nH]5)C=CC3=C4)c3ccccc32)CC1 [Clozapine-c-2-NB590] | – | – | NanoBRET Fold Response (OPRD1, 0.1μM tracer): 0.99; NanoBRET Fold Response (OPRD1, 1μM tracer): 0.92
7 | COc1ccccc1N1CCN(CCCCN2C(=O)c3ccc(CNC(=O)CCOCCNC(=O)c4ccc(CNC(=O)CCc5ccc6n5[B-](F)(F)[N+]5=C(c7ccc[nH]7)C=CC5=C6)cc4)cc3C2=O)CC1 [NAN-190-3-NB590] | 0.79 | 1.17 | –
8 | Cc1nc2n(c(=O)c1CCN1CCC(c3noc4cc(F)ccc34)CC1)CCCC2OC(=O)NCCOCCOCCOCCOCCNC(=O)CCc1ccc2n1[B-](F)(F)[N+]1=C(c3ccc[nH]3)C=CC1=C2 (stereo not drawn) [Risperidone-2-NB590] | 0.99 | 0.99 | –
9 | O=C(CCOCCOCCOCCOCCNC(=O)CCc1ccc2n1[B-](F)(F)[N+]1=C(c3ccc[nH]3)C=CC1=C2)NCCCN1CCN(C2=Nc3ccccc3Oc3ccc(Cl)cc32)CC1 [Loxapine-a-2-NB590] | 1.01 | 1.04 | –
10 | COc1ccccc1N1CCN(CCCCN2C(=O)c3ccc(CNC(=O)CCOCCOCCOCCOCCNC(=O)CCc4ccc5n4[B-](F)(F)[N+]4=C(c6ccc[nH]6)C=CC4=C5)cc3C2=O)CC1 [NAN-190-2-NB590] | 0.98 | – | –
11 | CC(C)N(CC[C@H](c1ccccc1)c1cc(CCNC(=O)CCOCCOCCOCCOCCNC(=O)CCc2ccc3n2[B-](F)(F)[N+]2=C(c4ccc[nH]4)C=CC2=C3)ccc1O)C(C)C [Tolterodine-2-NB590] | 1.00 | 0.94 | –
12 | N#CN=C(NCCCOc1cccc(CN2CCCCC2)c1)NCCNC(=O)CCOCCOCCOCCOCCNC(=O)CCc1ccc2n1[B-](F)(F)[N+]1=C(c3ccc[nH]3)C=CC1=C2 [Aminopotentidine-2-NB590] | 1.05 | 1.02 | –
13 | CCOC(=O)c1cc(C#N)c(N2CCC(C(=O)NS(=O)(=O)Cc3ccccc3/C=C/C(=O)NCCNC(=O)CCc3ccc4n3[B-](F)(F)[N+]3=C(c5ccc[nH]5)C=CC3=C4)CC2)nc1C [AZD1283-1-NB590] | – | – | NanoBRET Fold Response (OPRD1, 0.1μM): 1.09; NanoBRET Fold Response (OPRD1, 1μM): 1.08
14 | CN(C)CCC=C1c2ccccc2CCc2ccc(C(=O)NCCNC(=O)CCOCCOCCOCCOCCNC(=O)CCc3ccc4n3[B-](F)(F)[N+]3=C(c5ccc[nH]5)C=CC3=C4)cc21 [Amitriptyline-b-2-NB590] | – | – | NanoBRET Fold Response (tracer at 0.1μM, listed as amitriptyline-b-2-NB590): 1.01; NanoBRET Fold Response (tracer at 1μM, listed as amitriptyline-b-2-NB590): 1.01
15 | CN(C)CCC=C1c2ccccc2CCc2ccc(C(=O)NCCNC(=O)CCOCCOCCOCCOCCNC(=O)CCc3ccc4n3[B-](F)(F)[N+]3=C(c5ccc[nH]5)C=CC3=C4)cc21 [Amitriptyline-a-2-NB590] | – | – | NanoBRET Fold Response (tracer at 0.1μM): 0.99; NanoBRET Fold Response (tracer at 1μM): 0.91
16 | O=C(CCc1ccc2n1[B-](F)(F)[N+]1=C(c3ccc[nH]3)C=CC1=C2)NCCOCCOCCNC(=O)OCCOCCN1CCN(C2=Nc3ccccc3Sc3ccccc32)CC1 [Quetiapine-a-2-NB590] | 1.11 | 0.89 | –
17 | Cc1cc2c(s1)Nc1ccccc1N=C2N1CCN(CCCNC(=O)CCOCCOCCOCCOCCNC(=O)CCc2ccc3n2[B-](F)(F)[N+]2=C(c4ccc[nH]4)C=CC2=C3)CC1 [Olanzapine-a-2-NB590] | 0.95 | 1.09 | –
18 | CN1CCN(C2=Nc3cc(Cl)ccc3Nc3ccc(CNC(=O)CCOCCOCCOCCOCCNC(=O)CCc4ccc5n4[B-](F)(F)[N+]4=C(c6ccc[nH]6)C=CC4=C5)cc32)CC1 [Clozapine-b-2-NB590] | – | – | NanoBRET Fold Response (OPRD1, 0.1μM tracer): 1.02; NanoBRET Fold Response (OPRD1, 1μM tracer): 0.99
19 | COc1ccc2c(n1)c(CCNC(C)=O)cn2CCNC(=O)CCc1ccc2n1[B-](F)(F)[N+]1=C(c3ccc[nH]3)C=CC1=C2 [Azamelatonin-1-NB590] | – | – | NanoBRET Fold Response (0.1μM tracer): 1.00; NanoBRET Fold Response (1μM tracer): 1.00
20 | CN(CCC=C1c2ccccc2CCc2ccccc21)C(=O)CCOCCOCCOCCOCCNC(=O)CCc1ccc2n1[B-](F)(F)[N+]1=C(c3ccc[nH]3)C=CC1=C2 [Amitriptyline-e-2-NB590] | – | – | NanoBRET Fold Response (tracer at 1μM): 1.01
21 | O=C(CCc1ccc2n1[B-](F)(F)[N+]1=C(c3ccc[nH]3)C=CC1=C2)NCc1ccc(C(=O)NCCOCCOCCNCC(O)COc2cccc3ccccc23)cc1 (stereo not drawn) [Propranolol-3-NB590] | – | – | NanoBRET Fold Response (OPRD1, 0.1μM): 0.97; NanoBRET Fold Response (OPRD1, 1μM): 1.01
22 | O=C(CCOCCOCCOCCOCCNC(=O)CCc1ccc2n1[B-](F)(F)[N+]1=C(c3ccc[nH]3)C=CC1=C2)NCCCN1CCN(C2=Nc3cc(Cl)ccc3Nc3ccccc32)CC1 [Clozapine-a-2-NB590] | – | – | NanoBRET Fold Response (OPRD1, 0.1μM tracer): 1.04; NanoBRET Fold Response (OPRD1, 1μM tracer): 0.95
